Measurements taken from patent publication US12178878B2, “Amyloid peptide scaffolds coordinate with Alzheimer's disease drugs” (The University of Massachusetts, priority 2018, dated 2024).
Read-outs that look alike come from different tables or passages of the source.

What was measured:
Assay type in all cases: binding
[1] = system: […] (SEQ ID NO: 3) amyloid peptide; assay: Amyloid peptide/inhibitor coordination in dilute solution (1 mg/mL), drug captured after pellet washings; settings: for AD compound captured, Wash 1 / AD compound captured, Wash 2 / AD compound captured, Wash 3: 150 μM inhibitor loaded; for AD compound captured, Wash 1: 1st pellet wash; for AD compound captured, Wash 2: 2nd pellet wash; for AD compound captured, Wash 3: 3rd pellet wash; for fraction of the 150 μM loaded drug incorporated into the peptide: UV-Vis, first wash
Description: Amyloid Peptide/Inhibitor Coordination Studies in Dilute Solutions. […] Subsequently, 1 mL of DI water was added to wash the pellet (followed by vortexing until obtaining a homogenous dispersion) in order to remove any unbound inhibitor. The samples were then centrifuged again at the same conditions so as to pelletize the amyloid materials, and the supernatant was decanted. Another 1 mL of DI water was then added into the pellet, the mixture was vortexed, and the physically bound inhibitor into the dilute amyloid peptide dispersions was quantified by UV-Vis between 200-600 nm and MS. This step is denoted as wash 1 in our study. Two additional pellet purification cycles were realized with replacement of the decanted volume each time with 1 mL of fresh DI water (denoted as wash 2 and wash 3 respectively). The inhibitor-containing peptides amyloids were normalized at 400 nm over the respective no inhibitor-containing amyloid peptides at the specific washing step, and the measured inhibitor peak values (at 315 nm and 323 nm) were subtracted from that of the amyloid peptide carriers at the same wavelength and concentration. The amount of inhibitors coordinated with the amyloid peptide carriers was quantified based on a calibration curve by both UV-Vis and MS.
The peak at 315 nm was selected for inhibitor quantification due the absence of peaks at that range for both peptides. […] However, the peak at 315 nm was selected for inhibitor quantification, and the following equation was used for both peptides: A315=A315 ([…]/Donepezil)−A315 ([…])
The peak at 323 nm was used for inhibitor quantification due the absence of peaks at that range for both peptides.

[2] = system: […] (SEQ ID NO: 4) amyloid peptide; settings: for AD compound captured, Wash 1 / AD compound captured, Wash 2 / AD compound captured, Wash 3: 150 μM inhibitor loaded; for AD compound captured, Wash 1: 1st pellet wash; for AD compound captured, Wash 2: 2nd pellet wash; for AD compound captured, Wash 3: 3rd pellet wash; for fraction of the 150 μM loaded drug incorporated into the peptide: UV-Vis, first wash
Description: Amyloid Peptide/Inhibitor Coordination Studies in Dilute Solutions. […]. As a negative control, 1 mL of 0.1 M PBS buffer was added. The mixtures were vortexed and sonicated to homogenously disperse any solid aggregates and stirred overnight to allow for coordination. The mixtures were transferred to 2 mL Eppendorf tubes and centrifuged for 15 mins at 4,400 rpm (14° C.) to pelletize the amyloid bound-inhibitors, and the supernatant was decanted. Subsequently, 1 mL of DI water was added to wash the pellet (followed by vortexing until obtaining a homogenous dispersion) in order to remove any unbound inhibitor. The samples were then centrifuged again at the same conditions so as to pelletize the amyloid materials, and the supernatant was decanted. Another 1 mL of DI water was then added into the pellet, the mixture was vortexed, and the physically bound inhibitor into the dilute amyloid peptide dispersions was quantified by UV-Vis between 200-600 nm and MS. This step is denoted as wash 1 in our study. Two additional pellet purification cycles were realized with replacement of the decanted volume each time with 1 mL of fresh DI water (denoted as wash 2 and wash 3 respectively). The inhibitor-containing peptides amyloids were normalized at 400 nm over the respective no inhibitor-containing amyloid peptides at the specific washing step, and the measured inhibitor peak values (at 315 nm and 323 nm) were subtracted from that of the amyloid peptide carriers at the same wavelength and concentration. The amount of inhibitors coordinated with the amyloid peptide carriers was quantified based on a calibration curve by both UV-Vis and MS.
. The peak at 315 nm was selected for inhibitor quantification due the absence of peaks at that range for both peptides. […]. However, the peak at 315 nm was selected for inhibitor quantification, and the following equation was used for both peptides: A315=A315 ([…]/Donepezil)−A315 ([…])
[…]. The peak at 323 nm was used for inhibitor quantification due the absence of peaks at that range for both peptides. […].

[3] = system: […] (SEQ ID NO: 3) amyloid peptide; assay: Coordination at higher peptide concentration (amyloid gel, 5 mg/mL), inhibitor capturing; settings: for capturing efficiency: relative to 2nd pellet wash, UV-Vis; for AD compound captured, Wash 1 / AD compound captured, Wash 2 / AD compound captured, Wash 3: 1000 μM inhibitor solution added; for AD compound captured, Wash 1: 1st pellet wash; for AD compound captured, Wash 2: 2nd pellet wash; for AD compound captured, Wash 3: 3rd pellet wash
Description: Amyloid Fibrils Preparation and Characterization. For the formation of fibrils, the amyloid peptides were dispersed in DI water at a 10 mg/ml, vortexed, heated at 60° C. for 30 sec, and sonicated for 15 mins (this cycle was repeated 10 times overall), and finally left overnight at room temperature to form a hydrogel. […] That was confirmed with Field Emission Scanning Electron Microscopy (FESEM) and Congo Red staining (CR).
Coordination Studies at Higher Peptide Concentrations and Inhibitor Capturing. […] (SEQ ID NO: 4) or […] (SEQ ID NO: 3) amyloid peptide gels (10 mg/mL, 1 mL volume) and was left to physically complex under stirring overnight (the final peptide concentration was diluted to 5 mg/mL). A control using 1 mL of 0.1 M PBS (no inhibitor) was also prepared. The complexed amyloid/inhibitor materials were then transferred to 5 mL conical Eppendorf tubes, and centrifuged for 15 mins at 4,400 rpm (14° C.). The supernatant was decanted, and 2 mL of DI water were subsequently added to wash the pellet (followed by vortexing until obtaining a homogenous dispersion) in order to remove any unbound inhibitor. The samples were then centrifuged again at the same conditions so as to pelletize the amyloid materials, and the supernatant was decanted. Another 2 mL of DI water were then added into the pellet, the mixture was vortexed, and the physically bound inhibitor into the amyloid peptides was quantified by UV-Vis between 200-600 nm and MS. This step is denoted as wash 1 in our study. Two additional pellet purification cycles were realized with replacement of the decanted volume each time with 2 mL of fresh DI water (denoted as wash 2 and wash 3 respectively). The inhibitor-containing amyloid peptides were normalized at 400 nm over the respective no inhibitor-containing ones at the specific washing step.

[4] = FYTGAIIGNYF gel 5 mg/mL, by UV-Vis

## COc1cc2c(cc1OC)C(=O)C(CC1CCN(Cc3ccccc3)CC1)C2 (centres unmarked) [donepezil]
[1]; FYTGAIIGNYF 1 mg/mL, by MS
  AD compound captured, Wash 1: 51 ± 3 µM
  AD compound captured, Wash 2: 47 ± 0 µM
  AD compound captured, Wash 3: 43 ± 4 µM
[1]; FYTGAIIGNYF 1 mg/mL, by UV-Vis
  AD compound captured, Wash 1: 33 µM
  AD compound captured, Wash 2: 28 ± 5 µM
  AD compound captured, Wash 3: 20 ± 5 µM
[1]; FYTGAIIGNYF 1 mg/mL, by UV-Vis, listed as Donepezil
  AD compound captured, Wash 1: 33 ± 4 µM
[1]; FYTGAIIGNYF 1 mg/mL
  fraction of the 150 μM loaded drug incorporated into the peptide: approximately ⅕
[2]; YFTGAIIGNFY 1 mg/mL, by MS
  AD compound captured, Wash 1: 43 ± 6 µM
  AD compound captured, Wash 2: 32 ± 4 µM
  AD compound captured, Wash 3: 21 ± 9 µM
[2]; YFTGAIIGNFY 1 mg/mL, by UV-Vis
  AD compound captured, Wash 1: 38 µM
  AD compound captured, Wash 2: 24 ± 4 µM
  AD compound captured, Wash 3: 5 ± 4 µM
[2]; YFTGAIIGNFY 1 mg/mL, by UV-Vis, listed as Donepezil
  AD compound captured, Wash 1: 38 ± 4 µM
[2]; YFTGAIIGNFY 1 mg/mL
  fraction of the 150 μM loaded drug incorporated into the peptide: approximately ¼
[3]; FYTGAIIGNYF 5 mg/mL
  capturing efficiency: 17%
[3]; FYTGAIIGNYF gel 5 mg/mL, by MS
  AD compound captured, Wash 1: 163 ± 4 µM
  AD compound captured, Wash 2: 151 ± 1 µM
  AD compound captured, Wash 3: 148 ± 3 µM
[3]; [4]
  AD compound captured, Wash 1: 187 ± 19 µM
  AD compound captured, Wash 2: 173 ± 33 µM
  AD compound captured, Wash 3: 160 ± 33 µM

## Nc1c2c(nc3ccccc13)CCCC2 [tacrine]
[1]; […] 1 mg/mL, by MS
  AD compound captured, Wash 1: 29 ± 4 µM
  AD compound captured, Wash 2: 24 ± 8 µM
  AD compound captured, Wash 3: 23 ± 6 µM
[1]; […] 1 mg/mL, by UV-Vis
  AD compound captured, Wash 2: 17 ± 4 µM
  AD compound captured, Wash 3: 13 ± 3 µM
[1]; […] 1 mg/mL
  fraction of the 150 μM loaded drug incorporated into the peptide: approximately 1/7
[2]; […] 1 mg/mL, by MS
  AD compound captured, Wash 1: 37 ± 2 µM
  AD compound captured, Wash 2: 2 ± 2 µM
  AD compound captured, Wash 3: 0 µM
[2]; […] 1 mg/mL, by UV-Vis
  AD compound captured, Wash 1: 26 µM
  AD compound captured, Wash 2: 14 ± 2 µM
  AD compound captured, Wash 3: 3 ± 2 µM
[2]; […] 1 mg/mL, by UV-Vis, listed as Tacrine
  AD compound captured, Wash 1: 26 ± 2 µM
[2]; […] 1 mg/mL
  fraction of the 150 μM loaded drug incorporated into the peptide: approximately ⅕
[3]; […] 5 mg/mL
  capturing efficiency: approximately 8%
[3]; […] gel 5 mg/mL, by MS
  AD compound captured, Wash 1: 114 ± 6 µM
  AD compound captured, Wash 2: 102 ± 2 µM
  AD compound captured, Wash 3: 94 ± 10 µM
[3]; […] gel 5 mg/mL, by UV-Vis
  AD compound captured, Wash 1: 104 ± 16 µM
  AD compound captured, Wash 2: 82 ± 9 µM
  AD compound captured, Wash 3: 72 ± 10 µM
